Source: patent publication US7279470B2 (priority 2001, dated 2007)

Experiments:
[1] = target: T1, Hormone-sensitive lipase (HSL) (Homo sapiens, UniProt Q05469); assay type: biochemical; conditions: 10 μM sample concentration; percent activity relative to a non-inhibited sample (no compound); 30 min preincubation 25° C., 120 min at 37° C.
T1 sequence (Q05469 1-1076): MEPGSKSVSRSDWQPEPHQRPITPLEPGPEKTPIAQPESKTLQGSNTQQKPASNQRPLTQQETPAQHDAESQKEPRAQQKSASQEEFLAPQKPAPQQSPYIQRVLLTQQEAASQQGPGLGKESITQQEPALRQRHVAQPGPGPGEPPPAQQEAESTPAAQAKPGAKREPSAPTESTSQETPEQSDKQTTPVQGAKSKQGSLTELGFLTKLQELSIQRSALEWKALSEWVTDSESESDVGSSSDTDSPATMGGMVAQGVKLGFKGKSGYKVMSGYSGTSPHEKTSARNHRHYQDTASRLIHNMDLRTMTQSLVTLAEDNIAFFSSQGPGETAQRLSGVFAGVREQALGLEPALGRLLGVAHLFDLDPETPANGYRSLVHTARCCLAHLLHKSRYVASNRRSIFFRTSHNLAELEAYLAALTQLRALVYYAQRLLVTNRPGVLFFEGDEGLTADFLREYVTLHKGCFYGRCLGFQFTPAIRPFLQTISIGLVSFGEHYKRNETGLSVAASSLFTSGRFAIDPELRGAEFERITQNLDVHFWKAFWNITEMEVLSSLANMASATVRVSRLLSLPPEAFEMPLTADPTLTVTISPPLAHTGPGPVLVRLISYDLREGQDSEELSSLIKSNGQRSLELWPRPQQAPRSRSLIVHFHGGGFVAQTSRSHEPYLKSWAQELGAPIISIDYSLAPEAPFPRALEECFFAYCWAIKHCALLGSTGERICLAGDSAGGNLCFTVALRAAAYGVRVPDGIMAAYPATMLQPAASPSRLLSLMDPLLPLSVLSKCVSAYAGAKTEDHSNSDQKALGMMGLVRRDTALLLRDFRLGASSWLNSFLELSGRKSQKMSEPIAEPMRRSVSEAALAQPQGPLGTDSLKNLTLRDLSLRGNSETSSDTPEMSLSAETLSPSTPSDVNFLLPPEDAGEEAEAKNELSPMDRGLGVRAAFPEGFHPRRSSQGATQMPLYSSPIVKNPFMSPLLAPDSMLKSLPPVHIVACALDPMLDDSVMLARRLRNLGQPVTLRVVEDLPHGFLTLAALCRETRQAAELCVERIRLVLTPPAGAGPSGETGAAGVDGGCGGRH
Protocol: Materials. The Hormone-sensitive lipase was provided by Dr. Cecilia Holm, from Lund University Sweden or produced and purified by Novo Nordisk (NN) using the reagents and protocols used by Dr. Holm. […] All other reagents are of commercial grade and obtained from various commercial sources.
BSA is added as product receptor. The transfer of the fluorochrome from the lipid phase to the water (BSA) phase changes the fluorescent properties of the fluorochrome. The changes can be monitored on a fluorimeter with an excitation wavelength of 450 nm and an emission wavelength of 545 nm.
Compound and HSL (20 μL compound, 10 μL enzyme and 70 μL PED-BSA buffer) is preincubated for 30 min at 25° C. before addition of substrate (100 μL). Amount of formed product is measured after 120 min incubation at 37° C.

[2] = target: T1, Hormone-sensitive lipase (HSL); assay type: biochemical; conditions: 10 μM concentration; percent activity relative to an un-inhibited sample (no compound); 3H-Triolein substrate, 25° C.
Text: Materials. The Hormone-sensitive lipase was provided by Dr. Cecilia Holm, from Lund University Sweden or produced and purified by Novo Nordisk (NN) using the reagents and protocols used by Dr. Holm. The substrates used are: ^3H-labeled triolein (TO) from Amersham, Buckinghamshire, U.K. cat No. TRA191; 5-20 Ci/mmol dissolved in toluene, triolein (Sigma, Cat. No. T-1740), fluorochrome-labeled triacylglyceride (cis-octadec-9-enoic acid 2-[12-(7-nitrobenzo[12,5]oxadiazol-4-ylamino)dodecanoyloxy]-1-cis-octadec-9-enoyloxymethyl-ethyl ester) prepared by Novo Nordisk (NN) by conventional methods, and 1,3-(di[^3H]-stearin), 2-(PEG-Biotin)glycerol prepared in collaboration with Amersham Pharmacia Biotech, UK and described in WO 01/073442. Phosphatidyl choline (PC) and phosphatidyl inositol (PI) are from Sigma (St Luis MO cat. Nos. P-3556 and P-5954 respectively). All other reagents are of commercial grade and obtained from various commercial sources.
3180.2: Assay for determination of percent inhibition by compound at 10 μM concentration. A lipid emulsion with ^3H-Triolein and phospholipid is used as substrate with a standard cencentration of highly purified HSL. BSA is added as product receptor. The substrate is prepared as follows: […]

## O=C(Oc1ccc(Oc2ccc3c(C(F)(F)F)cc(C(F)(F)F)nc3n2)cc1)N1CCOCC1 [Example 90, Morpholine-4-carboxylic acid 4-(5,7-bis-trifluoromethyl-[1,8]naphthypyridin-2-yloxy)-phenyl ester]
[1]
  Test 3190.1 HSL_FL % ACTIVITY All: 24%

## CN(C(=O)Oc1ccc(OC(F)(F)C(F)(F)F)cc1)c1ccccc1 [Example 20]
[1]
  Test 3190.1 HSL_FL % ACTIVITY All: 51%

## Cc1c(Cc2ccccc2)c(=O)oc2cc(OC(=O)N3CCOCC3)ccc12 [Example 92]
[2]
  Test 3180.2 HSL % ACTIVITY All: 62%

## N-Methyl-N-phenethyl-5-ethyl-3-(4-chlorophenyl)-[1,2,4]triazole-1-carboxamide [Example 119]
[2]
  Test 3180.2 HSL % ACTIVITY All: 10%
